Patent publication US20240239786A1, “COMPOSITIONS AND METHODS FOR THE TREATMENT AND PREVENTION OF CANCER” (Yale University, priority 2021, published 2024)

Columns and labels:
DSB end resection = test: Western blot of DSB end resection with etoposide in PEO4 cells; assay type: cell-based; settings: for Chk1 phosphorylation with/without etoposide: 5 μM etoposide 4 hr; for RPA32 phosphorylation, drug alone: 30 μM DB4, 1 μM triapine or 5 μM etoposide; for etoposide-induced RPA32 phosphorylation: pre-treated 1 hr, then 5 μM etoposide 4 hr
Method: PEO1 cells were treated with 30 μM DB4 or 1 μM triapine for indicated times, pulsed with EdU for 1 hr and subsequently assayed for DNA synthesis inhibition as described in FIG. 2B. The bivariate plots of Alexa Fluor 488 and PE-Cy5 were gated to determine % S phase cells. […] PEO4 cells were treated with 30 μM DB4 or 1 μM triapine for indicated times, pulsed with EdU for 1 hr and subsequently assayed for DNA synthesis inhibition as described in FIG. 2B. The bivariate plots of Alexa Fluor 488 and PE-Cy5 were gated to determine % S phase cells. […] The bivariate plots of Alexa Fluor 488 and PE-Cy5 shown in FIG. 6A and FIG. 6B were gated to determine % cells in G1, S, and G2/M phases. […] PEO4 cells were treated with 30 μM DB4 or 1 μM triapine for various time periods and subjected to western blot analysis for the levels of cyclin A2, p-CDK1/2, p-H1, p-Chk1, and HSC70. The HSC70 protein level was used as a loading control. Cropped gel images of protein bands are presented. Cyclin A2, p-CDK1/2, and p-H1 bands were from re-probing the same blot. p-Chk1 and HSC70 bands were from re-probing the same duplicated blot. […] The CDK2 activity is expressed by the percentage of the p-HI levels relative to that of the 0 hr control is shown. […] Protein was analyzed by western blotting for p-Chk1, p-ATR, p-RPA32, γH2AX, and HSC70. Cropped gel images of protein bands are presented. All protein bands were from re-probing the same blot. DSB end resection is assessed by the level of p-RPA32.
To investigate the effects of DB4 on DSB end resection, the level of RPA32 phosphorylation, indicative of CDK2-dependent DSB end resection, was determined.
The methodology was described previously (Lin Z P et al., 2014, Molecular Cancer Res, 12:381-393; Ratner E S et al., 2016, Br J Cancer, 114:777-786). The anti-HSC70 antibody was purchased from Santa Cruz (Santa Cruz, CA). Anti-cyclin A2, anti-phospho-ATR (Thr-1981), anti-phospho-Chk1 (Ser-345), anti-phospho-CDK1/2 (Tyr-15), and anti-Y-H2AX (Ser-139) antibodies were from Cell Signaling (Danvers, MA). Anti-phospho-RPA32 (S4/S8) and anti-BRCA2 antibodies were from Bethyl Laboratories (Montgomery, TX). Anti-phospho-histone H1 antibody was from Millipore-Sigma (Burlington, MA). To avoid the cross-reaction of secondary antibodies with previously probed primary antibodies, blots were stripped and re-probed with next primary antibodies raised in a different species in an alternate fashion. All images were acquired and processed using the G: BOX gel documentation system and the GeneSnap software (Syngene, Frederick, MD). Brightness and contrast of images were applied equally across the entire gel/blot image and to controls. Images of protein bands were cropped and only brightness-adjusted using the PowerPoint software (Microsoft, Redmond, WA). Quantification of the protein band intensity was performed using the ImageJ software (NIH, Bethesda, MD).

Rad51 foci = test: Nuclear Rad51 foci by confocal microscopy in SKOV3 cells; assay type: cell-based; settings: for Rad51 foci, single agent: 30 μM DB4 or 25 μM olaparib
Description: Cells were transfected with the ISceI-expressing plasmid and then treated various concentrations of DB4 for 48 hr. Cells were harvested, stained with 7-AAD, and analyzed by flow cytometry for GFP-positive cells indicative of HR repair activity. […] Cells were transfected with the ISceI-expressing plasmid and treated with various concentrations of DB4. Cells were harvested, stained with 7-AAD, and stained, and analyzed by flow cytometry for GFP-positive cells indicative of NHEJ activity. Data are means±SD (N=3). *, p<0.05; **, p<0.01, compared with the 0 μM control of ISceI-transected cells. FIG. 7C depicts representative results of confocal imaging of olaparib-induced nuclear Rad51 foci in SKOV3 cells treated DB4. Cells were treated with 30 μM DB4 for 1 hr and then treated with 25 μM olaparib or 6 hr. Cells were fixed, permeabilized, and stained with the anti-Rad51 antibody and the Alexa Fluor 488-conjugated secondary antibody. Nuclei were counterstained with DAPI. Immunofluorescence of Rad51 foci and nuclei were visualized by confocal microscopy. […] Cells were also scored for nuclei containing equal or more than 10 distinct Rad51 foci to determine the percentage of cells positive for Rad51 foci. Data are means±SD (N=10). p<0.001, compared between indicated treatment groups. […] Cells were pre-treated with 30 μM DB4 and then treated with 25 μM olaparib for 24 hr. Protein was assessed by western blot analysis for the levels of γH2AX, p-H1, cyclin A2, p-CDK1/2, and HSC70. Cropped gel images of protein bands are presented. Full-length gel images are shown in FIG. 15. p-H1, cyclin A2, p-CDK1/2, and HSC70 bands were from re-probing the same blot. The γH2AX band was from a duplicated blot. […] The band density of γH2AX indicative of DSBs was quantified by densitometry. […]
To interrogate whether DB4 inhibited PARP inhibitor-induced DSB repair, nuclear Rad51 foci were determined in SKOV3 cells. […]
SKOV3 cells were grown for 24 hr prior to drug treatment. […] Nuclei containing equal or more than 10 Rad51 foci were counted to determine % Rad51-positive cells.

C=CCn1c(SCc2cccc(Cl)c2)nnc1C1CCN(Cc2nc3ccccc3s2)CC1 [DB4, 2-[(4-{4-allyl-5-[(3-chlorobenzyl)thio]-4H-1,2,4-triazol-3-yl}-1-piperidinyl)methyl]-1,3-benzothiazole]
ATR phosphorylation (DSB end resection): weakly induce ATR phosphorylation
Chk1 phosphorylation with/without etoposide (DSB end resection): only synergized with etoposide to induce Chk1 phosphorylation
RPA32 phosphorylation, drug alone (DSB end resection): no effect on basal RPA32 phosphorylation
etoposide-induced RPA32 phosphorylation (DSB end resection): augmented etoposide-induced RPA32 phosphorylation
olaparib-induced Rad51 foci (Rad51 foci; 30 μM DB4 1 hr then 25 μM olaparib): significantly attenuated
Rad51 foci, single agent (Rad51 foci): had no effects on Rad51 foci

O=C(c1cc(Cc2n[nH]c(=O)c3ccccc23)ccc1F)N1CCN(C(=O)C2CC2)CC1 [olaparib, reference compound]
Rad51 foci, single agent (Rad51 foci): induced a pronounced increase in Rad51 foci

NC(=S)NN=Cc1ncccc1N [triapine, 3-aminopyridine-2-carboxaldehyde-thiosemicarbazone, reference compound]
ATR phosphorylation (DSB end resection): induced ATR and Chk1 phosphorylation independently of etoposide treatment
Chk1 phosphorylation with/without etoposide (DSB end resection): induced ATR and Chk1 phosphorylation independently of etoposide treatment
RPA32 phosphorylation, drug alone (DSB end resection): induced a minor RPA32 phosphorylation
etoposide-induced RPA32 phosphorylation (DSB end resection): blocked phosphorylation of RPA32, induced by etoposide
